Measured values: ChEMBL document CHEMBL2321818, “Embellicines A and B: absolute configuration and NF-κB transcriptional inhibitory activity” (J Med Chem, 2013)

Columns and labels:
[1] = test system: K562; experiment: Cytotoxicity against human K562 cells assessed as cell viability after 48 hrs by trypan blue exclusion assay; format: functional, cell-based; conditions: K562, 48 h
[2] = (§1) Inhibition of TNFalpha-induced NFkappaB activation in human K562 cells incubated for 2 hrs prior to TNFalpha induction measured after 6 hrs by luciferase reporter gene assay; format: cell-based
[3] = test system: K562; experiment: as §1; format: cell-based
[4] = test system: K562; experiment: Cytotoxicity against human K562 cells assessed as cell viability after 8 to 72 hrs by trypan blue exclusion assay; format: functional, cell-based
[5] = test system: K562; experiment: Cytotoxicity against human K562 cells assessed as cell viability after 24 hrs by trypan blue exclusion assay; format: functional, cell-based; conditions: K562, 24 h
[6] = Selectivity ratio of IC50 for human PBMC cells to IC50 for human K562 cells; format: cell-based; conditions: PBMC cells versus K562 cells, read-out: Ratio IC50
[7] = test system: A549; experiment: Cytotoxicity against human A549 cells assessed as concentration required to inhibition cell proliferation after 120 hrs by Incucyte phase contrast microscopic analysis; format: functional
[8] = test system: K562; experiment: Cytotoxicity against human K562 cells assessed as cell viability after 8 hrs by trypan blue exclusion assay; format: functional, cell-based; conditions: K562, 8 h
[9] = test system: K562; experiment: Cytotoxicity against human K562 cells assessed as cell viability by trypan blue exclusion assay; format: functional, cell-based; conditions: TDE = time-dependent effect
[10] = test system: K562; experiment: Cytotoxicity against human K562 cells assessed as concentration required to inhibit cell proliferation after 120 hrs by Incucyte phase contrast microscopic analysis; format: functional
[11] = test system: K562; experiment: Cytotoxicity against human K562 cells assessed as cell viability after 72 hrs by trypan blue exclusion assay; format: functional, cell-based; conditions: K562, 72 h
[12] = test system: PBMC; experiment: Cytotoxicity against human PBMC cells assessed as cell viability after 24 hrs by trypan blue exclusion assay; format: cell-based

IC50 [2] [nM] | Compound | IC50 [1] [nM] | inhibition [3] | Activity [4] | IC50 [5] [nM] | selectivity ratio [6] | INH [7] | IC50 [8] [nM] | Activity [9] | INH [10] | IC50 [11] [nM] | IC50 [12] [nM]
352 | CC1=C[C@]2(C)C(=C(C)[C@@H]3[C@@H]4C[C@H](C)C[C@H](C)[C@H]4[C@H]4Oc5ccc(cc5)C[C@]5(O)NC(=O)/C(=C(/O)[C@H]2[C@@H]43)[C@@H]5O)[C@@H]1C | 250 | Dose-dependent effect | Dose-dependent effect | 323 | 40 | >=0.5 uM | 917 | tde | >=0.5 uM | 210 | 12800
3040 | CC1=C[C@]2(C)C(=C(C)[C@@H]3[C@@H]4C[C@H](C)C[C@H](C)[C@H]4[C@H]4Oc5ccc(cc5)C[C@@]5(O)C=C(C(=O)N5)C(=O)[C@H]2[C@@H]43)[C@@H]1C | 1280 | Dose-dependent effect | Dose-dependent effect | 2860 | – | – | 3470 | tde | – | 1200 | –
